{"source": "patent US7927613B2", "about": "“Pharmaceutical co-crystal compositions” (University of South Florida, priority 2002, dated 2011)", "key": {"Dissolution profile": {"experiment": "Dissolution profile", "assay_type": "physicochemical", "details": "vs. itraconazole free base (FIG. 28)", "excerpt": "In another aspect of the present invention, the dissolution profile of the API is modulated whereby the aqueous dissolution rate or the dissolution rate in simulated gastric fluid or in simulated intestinal fluid, or in a solvent or plurality of solvents is increased. Dissolution rate is the rate at which API solids dissolve in a dissolution medium. For APIs whose absorption rates are faster than the dissolution rates (e.g., steroids), the rate-limiting step in the absorption process is often the dissolution rate. Because of a limited residence time at the absorption site, APIs that are not dissolved before they are removed from intestinal absorption site are considered useless. Therefore, the rate of dissolution has a major impact on the performance of APIs that are poorly soluble. Because of this factor, the dissolution rate of APIs in solid dosage forms is an important, routine, quality control parameter used in the API manufacturing process. […] For rapid API absorption, Cs−C is approximately equal to Cs The dissolution rate of APIs may be measured by conventional means known in the art. […] Conditions under which the dissolution rate is measured is the same as discussed above The increase in dissolution may be further specified by the time the composition remains supersaturated before reaching equilibrium solubility."}}, "data": [{"compound": "itraconazole and malic acid [itraconazole:malic acid]", "values": [{"measurement": "dissolution profile", "setting": "Dissolution profile", "result": "modulated dissolution profile"}]}, {"compound": "CCOc1ccc(NC(N)=O)cc1", "note": "[4-ethoxyphenyl urea]", "values": [{"measurement": "melting point", "result": "173 to 174", "unit": "°C"}]}]}
